Key:
Type in all cases: binding
[1] = test system: murine monoclonal anti-HA antibody; test: HA peptide microarray sensitivity validation with anti-HA monoclonal antibody
rabbit sera IgG [2] = test: microarray assay of rabbit sera IgG reactivity to small molecule-peptide-agarose conjugates; conditions: sera (n=5) one month post-immunization, serially diluted; dilution of 1:6750 or lower; on PDC-E2 peptide
Description: (§1) Preparation of microarray and analysis of immunoreactivity. Xenobiotic compounds-peptide-agarose mixture were diluted (0.1%) in 0.1 M Na2CO3/NaHCO3 buffer (p)H 9.0), and transferred to 96 well plates. Thereafter mixtures were spotted onto glass slides (Mercedes Medical, Florida) using the Affymetrix 417 Microarrayer (Affymetrix, Santa Clara, Calif.). Each sample was spotted in triplicate, with a spot size of 150 μm in diameter. Spotted microarrays were stored at 4° C. until use. Before use, microarrays were blocked with 3% non-fat dry milk in PBS buffer for 1 hour at room temperature, and individual slides were thereafter incubated with diluted antibody samples (rabbit sera 1:250, murine anti-PDC monoclonal antibody 1:1) in 1 ml of blocking buffer (3% non-fat dry milk in PBS with 0.05% tween-20) (PBST) for 1 hour at room temperature. After thorough washes with PBST, 1 ml of the Cy3 conjugated secondary antibody (1 μg/ml) (Zymed Laboratories Inc. San Francisco, Calif.) in blocking buffer was added to each slide and incubated at room temperature for 30 min. […] Mixtures of xenobiotics and agarose were also spotted and analyzed as controls. […]
Comparison between ELISA and microarray assay. Rabbit sera (n=5) at one month post-immunization were serially diluted (1:250, 1:750, 1:2250, 1:6750 and 1:20250) and IgG reactivity to small molecule-peptide-agarose conjugates were determined by both the ELISA and microarray assay. […] Likewise, IgG reactivity of rabbit sera at 0, 1, 6, 12 and 22 months post-immunization against recombinant human PDC-E2 protein (see Leung, P. S. et al. J. Immunol. 2003, 170:5326) and KLH (Sigma, St. Louis, Mo.) was determined at 1:100 sera dilution by standard ELISA.
Validation of peptide microarray assay. […] Rabbit sera (n=5) at one month post-immunization with human recombinant PDC-E2 were serially diluted and their IgG reactivity against 6-bromohexanoate, compound 9, lipoic acid on PDC-E2 peptide and non-lipoylated native PDC-E2 peptide were determined by both ELISA and microarray assay (FIG. 13). […]

rabbit sera IgG [3] = test: ELISA of rabbit sera IgG reactivity to small molecule-peptide-agarose conjugates; conditions: sera (n=5) one month post-immunization, serially diluted; dilution of 1:6750 or lower; on PDC-E2 peptide
Description: Comparison between ELISA and microarray assay. Rabbit sera (n=5) at one month post-immunization were serially diluted (1:250, 1:750, 1:2250, 1:6750 and 1:20250) and IgG reactivity to small molecule-peptide-agarose conjugates were determined by both the ELISA and microarray assay. Briefly, ELISA plates were coated with 50 μl of each individual xenobiotic compounds-peptide-agarose mixture in DMSO (1 mg/ml) for 2 hours at room temperature, then antigens were removed and plates dried overnight at room temperature. Dried ELISA plates were thereafter blocked with 3% non-fat dry milk in PBS and incubated with serially diluted rabbit sera for 1 hour at room temperature. After washing, the plates were incubated with HRP conjugated mouse anti-rabbit IgG (Zymed, San Francisco, Calif.) antibodies for 30 min at room temperature, washed and incubated with 2,2′-azino-bis(3-ethylbenzthiazoline-6-sulfonic acid) containing hydrogen peroxide (Kirkegaard & Perry Laboratories, Inc, MD). Likewise, IgG reactivity of rabbit sera at 0, 1, 6, 12 and 22 months post-immunization against recombinant human PDC-E2 protein (see Leung, P. S. et al. J. Immunol. 2003, 170:5326) and KLH (Sigma, St. Louis, Mo.) was determined at 1:100 sera dilution by standard ELISA.
Validation of peptide microarray assay. To validate the microarray assay, data obtained using the microarray and ELISA were compared. Rabbit sera (n=5) at one month post-immunization with human recombinant PDC-E2 were serially diluted and their IgG reactivity against 6-bromohexanoate, compound 9, lipoic acid on PDC-E2 peptide and non-lipoylated native PDC-E2 peptide were determined by both ELISA and microarray assay (FIG. 13). […] To validate the sensitivity of the microarray, four different concentrations (0.1%, 0.03%, 0.01% and 0.004%) of HA peptide ([…]) were spotted. Individual arrays were incubated with murine monoclonal anti-HA antibody or normal murine IgG followed by secondary antibody (goat anti-murine IgG) conjugated to Cy3.

[4] = test system: murine anti-PDC monoclonal antibody 2H4; test: xenobiotic-peptide-agarose microarray, reactivity of mAb 2H4; conditions: xenobiotic or lipoic acid coupled to PDC peptide-agarose
Text: Synthesis of mimeotopes and coupling with peptide-agarose conjugate. Carboxylic acid derivatives of twenty-three xenobiotic compounds were used in this study. Compounds 1-19 were synthesized as described in Long, S. A. et al. J. Immunol. 2001, 167:2956 which is herein incorporated by reference in its entirety. The carboxylic acid derivatives are then reacted with NHS to form the corresponding NHS esters. These 23 compounds, in addition to lipoic acid with NHS ester, were coupled to the lysine residue on the PDC-E2 peptide-agarose conjugate as follows. Briefly, 0.4 mg of the PDC-E2 peptide-agarose conjugate and 10 μmol of each of the NHS esters were mixed in 40 μl of DMSO. Mixtures were incubated at room temperature for 2 hours. To ensure complete coupling, a quantitative ninhydrin test at 570 nm was performed.
as §1, with “min. Subsequently slides were washed in PBST for 10 min and in water for 15 sec.” for “min.”

Compound | anti-HA antibody concentration giving dose dependent response ([1]; HA peptide spotted at 0.1%, 0.03%, 0.01%) [ng/mL] | anti-HA antibody concentration required ([1]; lowest concentration of HA (0.004%)) [ng/mL] | rabbit sera IgG reactivity, microarray assay (rabbit sera IgG [2]) | rabbit sera IgG reactivity, ELISA (rabbit sera IgG [3]) | reactivity of mAb 2H4 [4]
YPYDVPDYA [HA peptide] | ≥ 5 | > 50 |  |  | 
O=C(O)CCCC[C@@H]1CCSS1 (racemic) [lipoic acid] |  |  | dilution dependent response | dilution dependent response | bound strongly
O=C(O)CCCCCBr [6-bromohexanoate] |  |  | dilution dependent response | dilution dependent response | bound strongly
DKATIGFEVQEE [non-lipoylated native PDC peptide, 12 mer PDC-E2 peptide on agarose, without xenobiotic or lipoic acid] |  |  | dilution dependent response | dilution dependent response | Weak reactivity
